{
  "source": "patent US9827219B2",
  "about": "“Compositions and methods for lowering levels of high-sensitivity C-reactive protein (HS-CRP) in a subject” (priority 2012, dated 2017)",
  "type_in_all_cases": "in vivo, human",
  "key": {"[1]": {"tested_on": "TG, LDL-C, non-HDL-C, VLDL-C, Lp-PLA2, Apo B, TC, HDL-C, VLDL-TG, hs-CRP, oxLDL, RLP-C", "assay": "Lipid and inflammatory parameters in statin-treated patients with diabetes mellitus-2, all endpoints (Example 2)", "conditions": "for Each evaluated endpoint (TG, LDL-C, non-HDL-C, VLDL-C, Lp-PLA2, Apo B, TC, HDL-C, VLDL-TG, hs-CRP, oxLDL, RLP-C), adjusted for placebo: twelve weeks, diabetes mellitus-2, FIG. 1", "from_the_text": "(§1) Parameters (a)-(y) can be measured in accordance with any clinically acceptable methodology. For example, triglycerides, total cholesterol, HDL-C and fasting blood sugar can be sample from serum and analyzed using standard photometry techniques. VLDL-TG, LDL-C and VLDL-C can be calculated or determined using serum lipoprotein fractionation by preparative ultracentrifugation and subsequent quantitative analysis by refractometry or by analytic ultracentrifugal methodology. Apo A1, Apo B and hsCRP can be determined from serum using standard nephelometry techniques. Lipoprotein (a) can be determined from serum using standard turbidimetric immunoassay techniques. LDL particle number and particle size can be determined using nuclear magnetic resonance (NMR) spectrometry. Remnants lipoproteins and LDL-phospholipase A2 can be determined from EDTA plasma or serum and serum, respectively, using enzymatic immunoseparation techniques. Oxidized LDL, intercellular adhesion molecule-1 and interleukin-2 levels can be determined from serum using standard enzyme immunoassay techniques. These techniques are described in detail in standard textbooks, for example Tietz Fundamentals of Clinical Chemistry, 6th Ed. (Burtis, Ashwood and Borter Eds.), WB Saunders Company.\n(§2) The effect of >96% E-EPA on lipid and inflammatory parameters was evaluated in patients with fasting triglyceride levels ≧150 mg/dl and <499 mg/dl on concomitant statin therapy. Patients with diabetes mellitus-2 were randomized and treated with either 2 g/day >96% E-EPA, 4 g/day >96%, or placebo for twelve weeks. At the end of the treatment period, several diabetes efficacy endpoints were evaluated including, TG, LDL-C, non-HDL-C, VLDL-C, Lp-PLA2, Apo B, TC, HDL-C, VLDL-TG, hs-CRP, oxLDL, and RLP-C."}, "[2]": {"tested_on": "Ox-LDL", "assay": "MARINE study, oxidized LDL", "conditions": "MARINE ITT, week 12", "from_the_text": "as §1, with “Company. […]” for “Company.”"}, "[3]": {"tested_on": "ICAM-1", "assay": "MARINE study (fasting TG ≧500 mg/dL), ICAM-1", "conditions": "MARINE ITT, week 12", "from_the_text": "as §1, with “Company. […]” for “Company.”"}, "[4]": {"tested_on": "Apo B", "assay": "Apo B in patients with diabetes mellitus-2 (Example 2)", "conditions": "4 g/day, 12 weeks, on statin", "from_the_text": "as §1, with “(Burtis, Ashwood and Borter Eds.), WB Saunders Company.” left out\nThe effect of >96% E-EPA on lipid and inflammatory parameters was evaluated in patients with fasting triglyceride levels ≧150 mg/dl and <499 mg/dl on concomitant statin therapy. […]"}, "[5]": {"tested_on": "hsCRP", "assay": "MARINE study, hsCRP (also by concomitant statin use)", "from_the_text": "as §1\nA multi-center, placebo-controlled randomized, double-blind, 12-week study with an open-label extension was performed to evaluate the efficacy and safety of AMR101 in patients with fasting triglyceride levels ≧500 mg/dL. The primary objective of the study was to determine the efficacy of AMR101 2 g daily and 4 g daily, compared to placebo, in lowering fasting TG levels in patients with fasting TG levels ≧500 mg/dL and ≦1500 mg/dL (≧5.65 mmol/L and ≦16.94 mmol/L).\nThe population for this study was men and women (women of childbearing potential will need to be on contraception or practice abstinence)>18 years of age with a body mass index ≦45 kg/m^2 who were not on lipid-altering therapy or were currently on lipid-altering therapy. Patients currently on statin therapy (with or without ezetimibe) were evaluated by the investigator as to whether this therapy can be safely discontinued at screening, or if it should be continued. If statin therapy (with or without ezetimibe) was to be continued, dose(s) must have been stable for ≧4 weeks prior to randomization. Patients taking non-statin, lipid-altering medications (niacin >200 mg/day, fibrates, fish oil, other products containing omega-3 fatty acids, or other herbal products or dietary supplements with potential lipid-altering effects), either alone or in combination with statin therapy (with or without ezetimibe), must have been able to safely discontinue non-statin, lipid-altering therapy at screening.\nApproximately 240 patients were randomized at approximately 50 centers in North America, South America, Central America, Europe, India, and South Africa. The study was a 58- to 60-week, Phase 3, multi-center study consisting of 3 study periods: (1) A 6- to 8-week screening period that included a diet and lifestyle stabilization and washout period and a TG qualifying period; (2) A 12-week, double-blind, randomized, placebo-controlled treatment period; and (3) A 40-week, open-label, extension period.\nAfter confirmation of qualifying fasting TG values, eligible patients entered a 12-week, randomized, double-blind treatment period. At Visit 4 (Week 0), patients were randomly assigned to 1 of the following treatment groups: • AMR101 2 g daily, • AMR101 4 g daily, or • Placebo.\nEligible patients were randomly assigned at Visit 4 (Week 0) to receive orally AMR101 2 g daily, AMR101 4 g daily, or placebo for the 12-week double-blind treatment period. AMR101 was provided in 1 g liquid-filled, oblong, gelatin capsules. The matching placebo capsule was filled with light liquid paraffin and contained 0 g of AMR101. […]"}, "[6]": {"tested_on": "RLP-C", "assay": "RLP-C in patients with diabetes mellitus-2 (Example 2)", "conditions": "4 g/day, 12 weeks, on statin", "from_the_text": "as §1, §2"}, "[7]": {"tested_on": "LDL-C", "assay": "LDL-C in patients with diabetes mellitus-2 (Example 2)", "conditions": "4 g/day; for Median placebo-adjusted percent change in LDL-C from baseline to study end: 12 weeks, on statin", "from_the_text": "as §1, §2"}, "[8]": {"tested_on": "FPG, HbA1c, insulin and HOMA-IR", "assay": "Diabetes parameters (FPG, HbA1c, insulin, HOMA-IR) in patients with diabetes mellitus-2 (Example 2)", "conditions": "4 g/day", "protocol": "as §2"}, "[9]": {"conditions": "well-controlled diabetes (HbA1c < median of 6.8%)"}, "[10]": {"conditions": "less-controlled diabetes (HbA1c ≧ median of 6.8%)"}},
  "data": [
    {"molecule": "CC/C=C\\C/C=C\\C/C=C\\C/C=C\\C/C=C\\CCCC(=O)OCC", "note": "[AMR101, all-cis eicosa-5,8,11,14,17-pentaenoic acid ethyl ester]", "values": [
      {"measurement": "Each evaluated endpoint (TG, LDL-C, non-HDL-C, VLDL-C, Lp-PLA2, Apo B, TC, HDL-C, VLDL-TG, hs-CRP, oxLDL, RLP-C), adjusted for placebo", "setting": "[1]; 2 g/day", "value": "showed a decrease"},
      {"measurement": "Each evaluated endpoint (TG, LDL-C, non-HDL-C, VLDL-C, Lp-PLA2, Apo B, TC, HDL-C, VLDL-TG, hs-CRP, oxLDL, RLP-C), adjusted for placebo", "setting": "[1]; 4 g/day", "value": "showed a decrease"},
      {"measurement": "Placebo-adjusted effects on non-HDL-C, VLDL-C, Apo B, TC, VLDL-TG, hsCRP and oxLDL, less-controlled versus well-controlled subjects", "setting": "[1]; 4 g/day, Table 7 and FIG. 3", "value": "more pronounced effects were observed in less-controlled diabetics"},
      {"measurement": "Ox-LDL change from baseline (median)", "setting": "[2]; 2 g/day", "value": 0.4, "unit": "%"},
      {"measurement": "Ox-LDL change from baseline (median)", "setting": "[2]; 4 g/day", "value": "−3.0", "unit": "%"},
      {"measurement": "ICAM-1 change from baseline (median)", "setting": "[3]; 2 g/day", "value": "−0.4", "unit": "%"},
      {"measurement": "ICAM-1 change from baseline (median)", "setting": "[3]; 4 g/day", "value": "−0.9", "unit": "%"},
      {"measurement": "Median placebo-adjusted percent change in Apo B from baseline to study end", "setting": "[4]; total diabetes", "value": "−9.5", "unit": "%"},
      {"measurement": "Median placebo-adjusted percent change in Apo B from baseline to study end", "setting": "[4]; [9]", "value": "−6.1", "unit": "%"},
      {"measurement": "hsCRP end-of-treatment value, median", "setting": "[5]; MARINE ITT, 2 g/day, week 12", "value": 2.4, "unit": "mg/L"},
      {"measurement": "hsCRP change from baseline (median)", "setting": "[5]; MARINE ITT, 4 g/day, week 12", "value": "−2.5", "unit": "%"},
      {"measurement": "hsCRP end-of-treatment value, median", "setting": "[5]; MARINE ITT, 4 g/day, week 12", "value": 2.2, "unit": "mg/L"},
      {"measurement": "hsCRP median placebo-adjusted % change from baseline", "setting": "[5]; MARINE, no statin, AMR101 2 g/day vs placebo, P 0.8297", "value": "−2.7", "unit": "%"},
      {"measurement": "hsCRP change from baseline, median %", "setting": "[5]; MARINE, no statin, AMR101 2 g/day, week 12", "value": 31.7, "unit": "%"},
      {"measurement": "hsCRP end-of-treatment value, median", "setting": "[5]; MARINE, no statin, AMR101 2 g/day, week 12, baseline 2.2", "value": 2.5, "unit": "mg/L"},
      {"measurement": "hsCRP median placebo-adjusted % change from baseline", "setting": "[5]; MARINE, no statin, AMR101 4 g/day vs placebo, P 0.0311", "value": "−27.4", "unit": "%"},
      {"measurement": "hsCRP change from baseline, median %", "setting": "[5]; MARINE, no statin, AMR101 4 g/day, week 12", "value": 0.0, "unit": "%"},
      {"measurement": "hsCRP end-of-treatment value, median", "setting": "[5]; MARINE, no statin, AMR101 4 g/day, week 12, baseline 2.2", "value": 2.2, "unit": "mg/L"},
      {"measurement": "hsCRP median placebo-adjusted % change from baseline", "setting": "[5]; MARINE, statin, AMR101 2 g/day vs placebo, P 0.1707", "value": "−33.2", "unit": "%"},
      {"measurement": "hsCRP change from baseline, median %", "setting": "[5]; MARINE, statin, AMR101 2 g/day, week 12", "value": 11.7, "unit": "%"},
      {"measurement": "hsCRP end-of-treatment value, median", "setting": "[5]; MARINE, statin, AMR101 2 g/day, week 12, baseline 1.5", "value": 1.6, "unit": "mg/L"},
      {"measurement": "hsCRP median placebo-adjusted % change from baseline", "setting": "[5]; MARINE, statin, AMR101 4 g/day vs placebo, P 0.0098", "value": "−67.9", "unit": "%"},
      {"measurement": "hsCRP change from baseline, median %", "setting": "[5]; MARINE, statin, AMR101 4 g/day, week 12", "value": "−30.6", "unit": "%"},
      {"measurement": "hsCRP end-of-treatment value, median", "setting": "[5]; MARINE, statin, AMR101 4 g/day, week 12, baseline 1.9", "value": 1.3, "unit": "mg/L"},
      {"measurement": "hsCRP median placebo-adjusted change from baseline", "setting": "[5]; MARINE, 2 g/day, with concomitant statin therapy", "value": "statistically insignificant"},
      {"measurement": "hsCRP median placebo-adjusted change from baseline", "setting": "[5]; MARINE, 2 g/day, without concomitant statin therapy", "value": "statistically insignificant"},
      {"measurement": "hsCRP median placebo-adjusted change from baseline", "setting": "[5]; MARINE, 4 g/day, with concomitant statin therapy", "value": "−67.9", "unit": "%"},
      {"measurement": "hsCRP median placebo-adjusted change from baseline", "setting": "[5]; MARINE, 4 g/day, without concomitant statin therapy", "value": "−27.4", "unit": "%"},
      {"measurement": "Median placebo-adjusted percent change in RLP-C from baseline to study end", "setting": "[6]; [10]", "value": "−21.3", "unit": "%"},
      {"measurement": "Median placebo-adjusted percent change in RLP-C from baseline to study end", "setting": "[6]; total diabetes", "value": "−25.0", "unit": "%"},
      {"measurement": "Median placebo-adjusted percent change in RLP-C from baseline to study end", "setting": "[6]; [9]", "value": "−26.7", "unit": "%"},
      {"measurement": "Median placebo-adjusted percent change in LDL-C from baseline to study end", "setting": "[7]; [10]", "value": "−5.7", "unit": "%"},
      {"measurement": "Median placebo-adjusted percent change in LDL-C from baseline to study end", "setting": "[7]; total diabetes", "value": "−6.3", "unit": "%"},
      {"measurement": "Median placebo-adjusted percent change in LDL-C from baseline to study end", "setting": "[7]; [9]", "value": "−6.6", "unit": "%"},
      {"measurement": "LDL-C levels between well-controlled, less-controlled and all diabetic subjects", "setting": "[7]; twelve weeks", "value": "no significant decrease in LDL-C levels"},
      {"measurement": "Glycemic control", "setting": "[8]; twelve weeks", "value": "did not worsen glycemic control"},
      {"measurement": "Changes in diabetes parameters including FPG, HbA1c, insulin and HOMA-IR", "setting": "[8]; well-controlled, less-controlled and all diabetic subjects, FIG. 4", "value": "no statistically significant changes"}
    ]}
  ]
}
